In patent US20120107916A1, “METHODS AND COMPOSITIONS FOR AFFECTING THE DIFFERENTIATION OF CLOSTRIDIA IN CULTURE” (priority 2009, published 2012):

How the values were obtained:
C. acetobutylicum = assay: Estimate of extended serial propagation in continuous culture from sequential batch transfers; set-up: species or system Clostridium acetobutylicum; settings: dilution rate 0.05/hour, from about 140 hours without peptide
Method: Under these experimental conditions, and knowledge of the growth of C. acetobutylicum in culture, it was determined that each sequential transfer was equivalent to about seven bacterial generations ([…], Applied and Environmental Microbiology 59:4198-4202, 1993). […] An estimate of extended serial propagation in continuous culture may be expressed as extended time in continuous culture by taking the dilution rate into account. In continuous culture, the time for one generation is equal to the inverse of the dilution rate.

[1] = tested on: Clostridium acetobutylicum ATCC 824; assay: Growth (optical density at 600 nm) of sequential batch cultures; format: cell-based
Method: (§1) Bacterial strains and media. Clostridium acetobutylicum ATCC 824 and C. beijerinckii NCIMB 8052 are available from several commercial microbial culture collections including the American Type Culture Collection (ATCC), Manassas, Va., USA. The strains were grown at 30° C. or 37° C. in YE broth, which contained, per liter: 5.0 g yeast extract, 2.5 g casamino acids, 1.0 g L-asparagine, 0.5 g cysteine.HCl, 56 mg K2HPO4, 56 mg KH2PO4, 82 mg anhydrous MgSO4, 8 mg FeSO4.H2O, 6 mg MnSO4.H2O and 10 g glucose. Alternatively, strains were grown in YEPG broth, which was identical to YE expect that K2HPO4 and KH2PO4 were increased to 145 mg/L each and glucose was increased to 60 g/L. The pH of the media was adjusted to 7.2 using 45% KOH prior to sterilization by autoclaving. Media were solidified by addition of 1.5% Bacteriological Agar, Actimedia Manufacturers, Inc., Lansing, Mich. All cultures were grown in anaerobic conditions using the AnaeroPack System, Mitsubishi Gas Chemical Co., Inc., Japan, and GasPak EZ Gas Generating Sachets, Becton, Dickinson and Co., Sparks, Md. Spore stocks were kept at room temperature on agar-solidified media and were activated by suspending spores in 0.5 mL to 1.0 mL of medium followed by heating for 10 min at 80° C. before inoculation into growth medium.
(§2) Growth and pH measurements. Growth of bacterial cultures was measured spectrophotometrically using optical density at 600 nm and pH of cell-free culture supernatants was measured using a hand-held Shindengen ISFET pH Meter KS501, Shendengen Electric Manufacturing Co., Ltd., Bannockburn, Ill.
(§3) Effect of peptide SEQ ID NO:143 addition on sequential batch cultures of C. acetobutylicum ATCC 824 grown at 30° C. Spores of C. acetobutylicum ATCC 824 were germinated and grown overnight at 30° C. under anaerobic conditions in YEPG medium. After about 24 h of growth, 75 μL of the culture was transferred (transfer 1) to each of four flasks that contained 10 mL of YEPG and either had no treatment or were treated with peptide SEQ ID NO:143 (see Table 8 and FIG. 1) at 1 nM, 10 nM or 50 nM. Thereafter, 75 μL of each culture was transferred, at the same time, every 24-48 h to 10 mL of fresh YEPG that contained the same peptide treatment or no treatment. Each culture was stopped after 96 hours of incubation and optical density, pH and ceric ion reactive chemicals were measured. Sequential batch culturing was continued through 5 transfers at which point the untreated culture and those treated with 1 nM and 10 nM of peptide SEQ ID NO:143 had stopped growing (Table 9).
(§4) Effect of peptide SEQ ID NO:143 addition on sequential batch cultures of C. acetobutylicum ATCC 824 grown at 37° C. Spores of C. acetobutylicum ATCC 824 were germinated and grown overnight at 37° C. under anaerobic conditions in YEPG medium that either contained 50 nM of peptide SEQ ID NO:143 or no added peptide. After about 24 h of growth, 10 μL of the untreated culture was transferred (transfer 1) to each of two flasks that contained 10 mL of YEPG with either no treatment or with 50 nM peptide SEQ ID NO:143. At the same time, 10 μL of the culture that was germinated in the presence of peptide SEQ ID NO:143 was also transferred to 10 mL of YEPG that contained 50 nM of peptide SEQ ID NO:143. Thereafter, 10 μL of each culture was transferred, at the same time, every 24-48 h to 10 mL of fresh YEPG that contained the same peptide treatment or no treatment. Each culture was stopped after 72 hours if incubation and optical density, pH and ceric ion reactive chemicals were measured. Sequential batch culturing was continued through 3 transfers at which point the untreated culture and the culture that was germinated and transferred in 50 nM of peptide were still growing, while the culture that was treated with peptide after germination had stopped growing (Table 15 and FIG. 7).

[2] = tested on: Clostridium acetobutylicum ATCC 824; assay: Final pH of cell-free culture supernatants of sequential batch cultures; format: cell-based
Method: as §1, §2, §3, §4

[3] = 1 nM peptide, transfer 1, 96 h, 30° C.
[4] = 1 nM peptide, transfer 2, 96 h, 30° C.
[5] = 1 nM peptide, transfer 3, 96 h, 30° C.
[6] = 1 nM peptide, transfer 4, 96 h, 30° C.
[7] = 1 nM peptide, transfer 5, 96 h, 30° C.
[8] = 10 nM peptide, transfer 1, 96 h, 30° C.
[9] = 10 nM peptide, transfer 2, 96 h, 30° C.
[10] = 10 nM peptide, transfer 3, 96 h, 30° C.
[11] = 10 nM peptide, transfer 4, 96 h, 30° C.
[12] = 50 nM peptide added after germination, transfer 1, 72 h, 37° C.
[13] = 50 nM peptide added after germination, transfer 2, 72 h, 37° C.
[14] = 50 nM peptide added after germination, transfer 3, 72 h, 37° C.
[15] = 50 nM peptide, transfer 1, 96 h, 30° C.
[16] = 50 nM peptide, transfer 2, 96 h, 30° C.
[17] = 50 nM peptide, transfer 3, 96 h, 30° C.
[18] = 50 nM peptide, transfer 4, 96 h, 30° C.
[19] = 50-50: germinated and transferred in 50 nM peptide, transfer 1, 72 h, 37° C.
[20] = 50-50: germinated and transferred in 50 nM peptide, transfer 2, 72 h, 37° C.
[21] = 50-50: germinated and transferred in 50 nM peptide, transfer 3, 72 h, 37° C.
[22] = 50-50: spores germinated in 50 nM peptide, transfer 0 (germinated culture), 72 h, 37° C.

Question: Which results are given for SYPGWSW [Peptide SEQ ID NO:143]?
Answer: Expected time in continuous culture with peptide (C. acetobutylicum): about 700 hours; Last sequential transfer through which growth was allowed ([1]; 1 nM peptide, 30° C., untreated culture did not grow after the second transfer): third transfer; Optical density at 600 nm of culture broths [1, 3]: 0.005; Optical density at 600 nm of culture broths [1, 4]: 2.274; Optical density at 600 nm of culture broths [1, 5]: 2.165; Optical density at 600 nm of culture broths [1, 6]: 0.044; Optical density at 600 nm of culture broths [1, 7]: 0.004; Last sequential transfer through which growth was allowed ([1]; 10 nM peptide, 30° C.): fourth transfer; Optical density at 600 nm of culture broths [1, 8]: 2.001; Optical density at 600 nm of culture broths [1, 9]: 2.245; Optical density at 600 nm of culture broths [1, 10]: 2.379; Optical density at 600 nm of culture broths [1, 11]: 2.266; Optical density at 600 nm of culture broths ([1]; 10 nM peptide, transfer 5, 96 h, 30° C.): 0.028; Optical density at 600 nm of culture broths [1, 12]: 1.891; Optical density at 600 nm of culture broths [1, 13]: 0.011; Optical density at 600 nm of culture broths [1, 14]: 0.100; Last sequential transfer through which growth was extended ([1]; 50 nM peptide, 30° C.): fifth transfer; Optical density at 600 nm of culture broths [1, 15]: 1.879; Optical density at 600 nm of culture broths [1, 16]: 2.089; Optical density at 600 nm of culture broths [1, 17]: 2.313; Optical density at 600 nm of culture broths [1, 18]: 2.187; Optical density at 600 nm of culture broths ([1]; 50 nM peptide, transfer 5, 96 h, 30° C.): 2.173; Number of sequential transfers compared with a culture without added peptide ([1]; 30° C., sequential batch cultures): at least four more times; Optical density at 600 nm of culture broths [1, 19]: 1.715; Optical density at 600 nm of culture broths [1, 20]: 1.858; Optical density at 600 nm of culture broths [1, 21]: 1.485; Optical density at 600 nm of culture broths [1, 22]: 2.121; Final pH of culture broths [2, 3]: 6.0; Final pH of culture broths [2, 4]: 4.4; Final pH of culture broths [2, 5]: 4.4; Final pH of culture broths [2, 6]: 6.0; Final pH of culture broths [2, 7]: 6.0; Final pH of culture broths [2, 8]: 4.4; Final pH of culture broths [2, 9]: 4.4; Final pH of culture broths [2, 10]: 4.5; Final pH of culture broths [2, 11]: 4.5; Final pH of culture broths ([2]; 10 nM peptide, transfer 5, 96 h, 30° C., listed as SEQ ID NO: 143): 6.0; Final pH of culture broths ([2]; 10 nM peptide, transfer 5, 96 h, 30° C., listed as SEQ ID NO:143): 5.9; Final pH of culture broths [2, 12]: 4.4; Final pH of culture broths [2, 13]: 6.0; Final pH of culture broths [2, 14]: 5.5; Final pH of culture broths [2, 15]: 4.4; Final pH of culture broths [2, 16]: 4.6; Final pH of culture broths [2, 17]: 4.5; Final pH of culture broths [2, 18]: 4.4; Final pH of culture broths ([2]; 50 nM peptide, transfer 5, 96 h, 30° C., listed as SEQ ID NO: 143): 4.3; Final pH of culture broths ([2]; 50 nM peptide, transfer 5, 96 h, 30° C., listed as SEQ ID NO:143): remained low; Final pH of culture broths [2, 19]: 4.5; Final pH of culture broths [2, 20]: 3.8; Final pH of culture broths [2, 21]: 4.6; Final pH of culture broths [2, 22]: 4.1
